We go through 19 compounds from patent US20190352268A1, “CANNABINOID RECEPTOR MEDIATING COMPOUNDS” (The USA, as represented by the Secretary, Department of …, priority 2015, published 2019).

The structures appear in SMILES notation.

A word on the Ki: it is the equilibrium dissociation constant of an inhibitor or competing ligand from its target.

The target in the first test is CB1 (Mus musculus, UniProt P47746). In words: CB1 radioligand displacement assay in mouse brain membranes. The test is classed as binding. Also noted: radioligand displacement assay in mouse brain membranes; from tissue; host or cells: mouse brain membranes. The note with it: Table 1; read-out: Ki CB1. A general note: Displacement assays read how much labelled ligand stays bound in the presence of the test substance.
CB1, sequence (P47746 whole entry): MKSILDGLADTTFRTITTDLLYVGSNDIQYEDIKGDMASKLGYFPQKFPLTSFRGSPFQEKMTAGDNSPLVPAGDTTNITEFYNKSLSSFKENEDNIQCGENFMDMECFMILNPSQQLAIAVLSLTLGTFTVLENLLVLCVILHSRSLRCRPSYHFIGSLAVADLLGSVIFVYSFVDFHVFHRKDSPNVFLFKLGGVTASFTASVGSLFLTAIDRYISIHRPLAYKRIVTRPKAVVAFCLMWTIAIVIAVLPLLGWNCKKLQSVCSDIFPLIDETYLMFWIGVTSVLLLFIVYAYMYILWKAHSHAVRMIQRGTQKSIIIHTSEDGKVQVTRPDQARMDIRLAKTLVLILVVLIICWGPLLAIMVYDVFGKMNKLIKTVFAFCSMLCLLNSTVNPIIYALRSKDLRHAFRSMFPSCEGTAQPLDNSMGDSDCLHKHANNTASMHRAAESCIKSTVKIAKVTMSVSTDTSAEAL
`CC(C)(C)OC(=O)N/C(N)=N/C(=N/S(=O)(=O)c1ccc(Cl)cc1)N1CC(c2ccccc2)C(c2ccc(Cl)cc2)=N1` (centres unmarked) [Compound 41]: the Ki came to 6.5 nM.

The test is the same for the next values; noted with them: Table 2; read-out: Ki CB1.
Take `COCCN(CCOC)/C(N)=N/C(=N/S(=O)(=O)c1ccc(Cl)cc1)N1CC(c2ccccc2)C(c2ccc(Cl)cc2)=N1` (centres unmarked) [Compound 39]: the Ki worked out at 425 nM.
The same measure, in the same setting: to `CC(C)(C)C(N)=NC(=NS(=O)(=O)c1ccc(Cl)cc1)N1C[C@H](c2ccccc2)C(c2ccc(Cl)cc2)=N1` [Compound 3E1] belongs 36 nM; to `CC(=O)N/C(N)=N/C(=N/S(=O)(=O)c1ccc(OC(F)(F)F)cc1)N1CC(c2ccccc2)C(c2ccc(Cl)cc2)=N1` (centres unmarked) [Compound 90], 1.8 nM; to `NC(=NC(=NS(=O)(=O)c1ccc(C(F)(F)F)cc1)N1CC(c2ccccc2)C(c2ccc(Cl)cc2)=N1)c1ccc(F)cc1F` (centres unmarked) [Compound 80], 6.6 nM.
On the same count and under the same terms, to `CC(N)=NC(=NS(=O)(=O)c1ccccc1)N1CC(c2ccccc2)C(c2ccc(Cl)cc2)=N1` (centres unmarked) [Compound 30] belongs 114 nM; to `NC(=NC(=NS(=O)(=O)c1ccc(C(F)(F)F)cc1)N1CC(c2ccccc2)C(c2ccc(Cl)cc2)=N1)n1cccn1` (centres unmarked) [Compound 84], 28 nM.
The same measure, in the same setting: next, `CN(Cc1cccnc1)C(N)=NC(=NS(=O)(=O)c1ccc(Cl)cc1)N1CC(c2ccccc2)C(c2ccc(Cl)cc2)=N1` (centres unmarked) [Compound 48]: 147 nM; `N/C(=N\C(=N\S(=O)(=O)c1ccc(Cl)cc1)N1CC(c2ccccc2)C(c2ccc(Cl)cc2)=N1)N1CCCCC1` (centres unmarked) [Compound 53]: 276 nM; `CN1CCN(/C(N)=N/C(=N/S(=O)(=O)c2ccc(Cl)cc2)N2CC(c3ccccc3)C(c3ccc(Cl)cc3)=N2)CC1` (centres unmarked) [Compound 54]: 309 nM.
For `C=CCN(CC=C)/C(N)=N/C(=N/S(=O)(=O)c1ccc(Cl)cc1)N1CC(c2ccccc2)C(c2ccc(Cl)cc2)=N1` (centres unmarked) [Compound 35], the Ki is 263 nM.
Still for that read-out and setting: to `CC(C)(N/C(N)=N/C(=N/S(=O)(=O)c1ccc(Cl)cc1)N1CC(c2ccccc2)C(c2ccc(Cl)cc2)=N1)c1ccccc1` (centres unmarked) [Compound 66] belongs 112 nM.
In the case of `Cc1cc(C)n(C(N)=NC(=NS(=O)(=O)c2ccc(Cl)cc2)N2CC(c3ccccc3)C(c3ccc(Cl)cc3)=N2)n1` (centres unmarked) [Compound 69], the Ki turned out to be 10 nM.
Take `CC(N)=NC(=NS(=O)(=O)c1ccc(OC(F)(F)F)cc1)N1CC(c2ccccc2)C(c2ccc(Cl)cc2)=N1` (centres unmarked) [Compound 97]: the Ki turned out to be 138 nM.
Turning to `CC(N)=NC(=NS(=O)(=O)c1ccc(Br)cc1)N1CC(c2ccccc2)C(c2ccc(Cl)cc2)=N1` (centres unmarked) [Compound 28], the Ki was 18 nM.
Still for that read-out and setting: to `N/C(=N\C(=N\S(=O)(=O)c1ccc(Cl)cc1)N1CC(c2ccccc2)C(c2ccc(Cl)cc2)=N1)NCCc1ccccc1` (centres unmarked) [Compound 51] belongs 931 nM; to `NC(=NC(=NS(=O)(=O)c1ccc(Cl)cc1)N1CC(c2ccccc2)C(c2ccc(Cl)cc2)=N1)SCCc1ccccc1` (centres unmarked) [Compound 25], 287 nM.
Same read-out and setting: to `CC(C)(C)OC(=O)N/C(N)=N/C(=N/S(=O)(=O)c1ccc(Cl)cc1)N1CC(c2ccccc2)C(c2ccc(Cl)cc2)=N1` (centres unmarked) [Compound 41] belongs 6.5 nM; to `NC(=NC(=NS(=O)(=O)c1ccc(Cl)cc1)N1CC(c2ccccc2)C(c2ccc(Cl)cc2)=N1)C12CC3CC(CC(C3)C1)C2` (centres unmarked) [Compound 7], 15 nM; to `N/C(=N\C(=N\S(=O)(=O)c1ccc(Cl)cc1)N1CC(c2ccccc2)C(c2ccc(Cl)cc2)=N1)NC1CCCC1` (centres unmarked) [Compound 56], 459 nM.
